We go through 1 substance from US20250090555A1, “METHOD FOR PRODUCING A CBD […] OR SOLID AND USE THEREOF” (Food4Innovations Ventures B.V., priority 2022, published 2025).

Where only a bound is given, the exact number is not on record here.

What all share (assay type): physicochemical
Data set [1] is described as follows: Turbidity of the emulsion before and after dilution with water, by turbidity meter. To be noted: dilution factor not printed at the place. The procedure:
A stable, optically clear, beverage is desirably obtained. Homogenization is carried out with a pressure of between 300 bar and 1500 bar, preferably about 800 bar. The homogenization pressure may be applied for between 1 and 5 passes. The ratio of emulsifier to carrier oil in the emulsion may be containing an excess amount of emulsifier in oil, which could be used to make an optically clear beverage. An optimal concentration of between 0 and 3 times more emulsifier in contrast to the oil phase will be tested. Cloudy beverages have a high turbidity, e.g., between 200 and 300 NTU, or even as high as 2,000 NTU. The aim is to develop a beverage with a turbidity<15 NTU. After production of the treatments, the turbidity will therefore be measured by a turbidity meter.
• 1. Before starting the experiment, the most optimal solubilizing phase of the emulsifier (organic or in aqueous phase) may be investigated. This could influence the droplet size and is different for every emulsifier (the movement of the emulsifier from the oil phase into the aqueous phase may be important in the formation of nano emulsions by this method). • 2. Prepare a pre-emulsion comprising the emulsifier in water or oil phase in order to fully dissolve the emulsifier. […] The concentrated emulsion may especially be made into a ready-to-drink clear beverage by diluting it with water. […]

A short description of data set [2]: Observation of foam formation of the emulsion / diluted beverage.
The nature of data set [3]: Observation of physical stability: viscosity, phase separation, storage / shelf life. Particulars: before or after homogenization or on storage. The text has this: • 1. Before starting the experiment, the most optimal solubilizing phase of the emulsifier (organic or in aqueous phase) may be investigated. This could influence the droplet size and is different for every emulsifier (the movement of the emulsifier from the oil phase into the aqueous phase may be important in the formation of nano emulsions by this method). • 2. Prepare a pre-emulsion comprising the emulsifier in water or oil phase in order to fully dissolve the emulsifier. When mixing the emulsifier into the solubilizing phase, an Ultra turrax is used at 10000 rpm (stand 37) for 3 minutes. If needed, the emulsifier and solubilized phase could be heated prior to mixing. • 3. Mix the pre-emulsion by slowly adding the oil phase to the aqueous phase while mixing with an Ultra turrax at 12000 rpm (stand 40) for 5 min). • 4. Let the pre-emulsion mixture rest for 1 hour. • 5. Homogenize the emulsion with a homogenizer preferably between 300-1200 bar, and between 3 and 5 passes. • 6. Collect the sample and measure the temperature directly. • 7. Allow it to cool completely before measuring the turbidity. • 8. The concentrated emulsion may especially be made into a ready-to-drink clear beverage by diluting it with water. Therefore, dilute a small amount of the obtained concentrated emulsion from step 6 with water to observe the clarity and turbidity of the final product. […]

For Sucrose monostearate, in data set [1], the Turbidity is on record as over 15 NTU. Also, the Foam formation entry in data set [2] was “no foam formation”. Further, in data set [3], the “Viscosity / phase separation / storage behaviour” value is “became extremely viscous after a couple days of storage”.
